# Measured values taken from PubChem BioAssay (NCI).
#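 48-hour exposure; five concentrations; linearly interpolated endpoints. TGI: concentration producing complete growth inhibition.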 Where a SMILES comes first, the peptide text is derived from it. [ ]: non-standard residue; d: D form. ξ: configuration not given here. ξLac(3-iPr) = CC(C)CC(O)C(=O)O; NMeV = CN[CH](C(=O)O)C(C)C; NMeA = CN[CH](C)C(=O)O; βAla = NCCC(=O)O
# Key:
# Experiment in all cases: NCI anticancer screen, dose series, 48 h
# IGROV1 ovarian = tested on: IGROV1 ovarian
# NCI/ADR-RES ovarian = tested on: NCI/ADR-RES ovarian
# OVCAR-4 ovarian = tested on: OVCAR-4 ovarian
# PC-3 prostate = tested on: PC-3 prostate
# SK-MEL-2 melanoma = tested on: SK-MEL-2 melanoma
# SK-OV-3 ovarian = tested on: SK-OV-3 ovarian
# UACC-62 melanoma = tested on: UACC-62 melanoma
# UO-31 renal = tested on: UO-31 renal
SMILES,TGI (IGROV1 ovarian),TGI (NCI/ADR-RES ovarian),TGI (OVCAR-4 ovarian),TGI (PC-3 prostate),TGI (SK-MEL-2 melanoma),TGI (SK-OV-3 ovarian),TGI (UACC-62 melanoma),TGI (UO-31 renal)
Cc1ccnc2[nH]c(-c3ccc(F)cc3)cc(=O)c12,> 100 µM,> 100 µM,> 100 µM,> 100 µM,> 100 µM,> 100 µM,> 100 µM,> 100 µM
O=C(NNC(=S)NCc1ccccc1)c1csc(NC(=S)NC2CCCCC2)n1,> 100 µM,96.4 µM,,> 100 µM,65.7 µM,> 100 µM,> 100 µM,58.2 µM
Clc1ccc(OCc2nnc3sc(-c4ccc(-c5ccc(Cl)cc5Cl)o4)nn23)cc1,> 100 µM,> 100 µM,> 100 µM,> 100 µM,> 100 µM,> 100 µM,,> 100 µM
NC(=O)SCCC(N)C(=O)O (stereo unspecified),> 100 µM,> 100 µM,> 100 µM,> 100 µM,> 100 µM,> 100 µM,> 100 µM,> 100 µM
CCN(CCCl)c1cc(CN(C)C)cc(NC(=O)C23CCC(C(=O)Nc4cc(CN(C)C)cc(N(CC)CCCl)c4)(CC2)CC3)c1,3.28 µM,> 100 µM,5.12 µM,1.95 µM,4.35 µM,4.24 µM,4.18 µM,30.9 µM
CC(C)Oc1cccc(N2C(=NCCc3c[nH]c4ccccc34)Nc3ccncc3S2(=O)=O)c1,> 100 µM,> 100 µM,> 100 µM,> 100 µM,> 100 µM,> 100 µM,> 100 µM,> 100 µM
O=C(O)[C@H](Cc1ccccc1)NCCN1CCC[C@H]1C(=O)O,,> 100 µM,> 100 µM,> 100 µM,> 100 µM,> 100 µM,> 100 µM,> 100 µM
COc1ccc(N=NC(=Nc2ccc(Cl)cc2)c2ccc(N(CCC#N)CCC#N)cc2)cc1,> 100 µM,> 100 µM,> 100 µM,> 100 µM,14.5 µM,> 100 µM,54.1 µM,> 100 µM
O=S(=O)(SC1=NCCN1)c1cccc2ccccc12,89.9 µM,> 100 µM,> 100 µM,> 100 µM,> 100 µM,45.7 µM,> 100 µM,> 100 µM
COC1(OC)C=CC2C1C1C=CC2C1(OC)OC (stereo unspecified),> 100 µM,> 100 µM,> 100 µM,> 100 µM,> 100 µM,> 100 µM,> 100 µM,> 100 µM
CC1=NN(c2nc(N)nc(C/C(N)=N/O)n2)C(C)(C)C1,> 100 µM,> 100 µM,> 100 µM,,,> 100 µM,> 100 µM,> 100 µM
O=c1cc(N=Nc2ccc(Cl)c(Cl)c2)[nH]c(=O)[nH]1,4.31 µM,3.93 µM,8.08 µM,13.6 µM,12 µM,30 µM,4.61 µM,4.93 µM
CN(C)c1nncc2n[nH]nc12,> 100 µM,> 100 µM,> 100 µM,> 100 µM,> 100 µM,> 100 µM,> 100 µM,> 100 µM
N#CC(C#N)N=Nc1ccc(-c2nc3ccccc3o2)cc1,93.2 µM,62.9 µM,> 100 µM,29.2 µM,31.4 µM,43.7 µM,26.1 µM,26 µM
COc1cc(/C=C\c2nnc(/C=C\c3ccc(O)c(OC)c3)s2)ccc1O,> 36.6 µM,14.2 µM,19.9 µM,> 64.3 µM,26 µM,30.6 µM,18.8 µM,15.3 µM
CC(=O)OC[C@@]12Cc3ccc(C)c(O)c3[C@]1(C)[C@@H](OC(C)=O)[C@]1(O)[C@H]([C@@H](OC(=O)c3ccccc3)[C@@H](C)[C@H]1OC(C)=O)[C@H]2OC(C)=O,> 50 µM,> 50 µM,> 50 µM,> 50 µM,> 50 µM,> 50 µM,> 50 µM,> 50 µM
COc1cc2c(cc1OC)CC1c3cc(OC)c(OC)cc3CCN1CC2 (stereo unspecified),> 100 µM,> 100 µM,> 100 µM,> 100 µM,> 100 µM,> 100 µM,> 100 µM,> 100 µM
CC(=O)OCC(C)(COC(C)=O)N1C(=O)C2C3c4ccccc4C(c4ccccc43)C2C1=O (stereo unspecified),> 100 µM,,,> 100 µM,,> 100 µM,> 100 µM,> 100 µM
CC(C)C[C@H](NC(=O)[C@H](Cc1ccc(F)cc1)NC(=O)c1ccccn1)B(O)O,,0.0212 µM,< 0.0326 µM,< 0.01 µM,< 0.01 µM,1.07 µM,< 0.01 µM,< 0.01 µM
C[N+](C)(C)c1cc2c(nn1)Nc1ccccc1S2,81.2 µM,56.9 µM,70.1 µM,47.9 µM,37.1 µM,72 µM,36.9 µM,41.9 µM
CC(=O)c1ccc2c(c1)CC1(C2)Cc2ccc3c(c2C1=O)CCC3 (stereo unspecified),> 100 µM,71.9 µM,> 100 µM,> 100 µM,35.5 µM,> 100 µM,74.7 µM,> 100 µM
COc1ccc(C2=C(N)c3ncccc3C2=O)cc1,> 100 µM,> 100 µM,> 100 µM,> 100 µM,> 100 µM,> 100 µM,> 100 µM,> 100 µM
CCC(C)C1NC(=O)C2CCCN2C(=O)C(CC(C)C)OC(=O)CCNC(=O)C(C)N(C)C(=O)C(C(C)C)N(C)C1=O (stereo unspecified) (cyclo([ξLac(3-iPr)]PI[NMeV][NMeA][βAla]); configuration not given here),> 100 µM,> 86.9 µM,> 100 µM,> 100 µM,8.81 µM,> 86.8 µM,5.06 µM,> 42 µM
O/N=C1/CC2(N3CCOCC3)C3CC/C(=N\O)C2CC1(Cc1ccccc1)C3 (stereo unspecified),> 100 µM,> 100 µM,> 100 µM,> 100 µM,> 100 µM,> 100 µM,> 100 µM,> 100 µM
O=c1[nH]c(=O)n(C2CC(O)C(CO)O2)c2nc3ccc4cc5ccccc5cc4c3nc12 (stereo unspecified),> 100 µM,> 100 µM,> 100 µM,> 100 µM,> 100 µM,> 100 µM,> 100 µM,> 100 µM
